Assay results as given in patent US8580940B2, “Photoporphyrinogen oxidase having activity of imparting resistance against acifluorfen and gene thereof” (Nippon Soda Co., Ltd., priority 2005, dated 2013).

What was measured:
[1] = tested on: AT strain (transgenic Synechocystis strain expressing Arabidopsis-derived protoporphyrinogen oxidase); experiment: microbe, parasite or virus in culture; type: cell-based, Synechocystis PCC6803; settings: for IC50: Synechocystis, 144 h, read-out: pI50 Value AT strain
Experimental: (§1) The AT strain obtained in Example 1 and ATΔslr1790 strain, in which slr1790 gene was disrupted by the method described in Example 4, were used. Aforedescribed BG11 liquid medium was employed. With a view to preventing reverse mutation or loss of the gene, either chloramphenicol or kanamycin was added to the medium at a final concentration of 25 μM for the AT strain and ATΔslr1790 strain, respectively, because a chloramphenicol resistance gene is introduced with protoporphyrinogen oxidase into AT strain and a kanamycin resistance gene is introduced into ATΔslr1790 strain when disrupting the gene. AT strain and ATΔslr1790 strain were precultured with shaking in BG11 liquid medium, collected during the growth phase, and suspended in fresh BG11 liquid medium supplemented with an antibiotic so that A730 became 0.1, which was used for investigation.
(§2) An active pharmaceutical ingredient of a test chemical was dissolved in DMSO and added to wells so that final concentration of agent became from 1.0×10^−4 M to 1.0×10^−9.5 M for each well (the final concentration of DMSO is 0.5%). The test includes shaking culture using a 96-well plate in a scale of 100 μl in each well at 30° C. of incubation temperature under 1000 lux of light intensity. Turbidity was measured 6 days after the start of the test and compared with solvent sample to calculate pI50 value. pI50 value=−log(concentration to inhibit 50% activity(M)) (Activity of Herbicidal Treatment)

[2] = tested on: ATΔslr1790 strain (AT strain in which slr1790 gene was disrupted); experiment: Test for inhibitory potency of protoporphyrinogen oxidase inhibitor, growth (turbidity) of ATΔslr1790 strain; type: cell-based, Synechocystis PCC6803; settings: turbidity 6 days after start, 30° C., 1000 lux, BG11 liquid medium, pI50 = -log(concentration to inhibit 50% activity (M)); for IC50: Synechocystis, 144 h
Experimental: as §1, §2

Amaranthus lividus = experiment: Herbicidal activity, foliage treatment; type: in vivo; settings: foliage spray, two weeks after the treatment, index 0-10
Experimental: Seeds of Amaranthus lividus were sowed on the surface of soil filled in a pot (200 cm^2) followed by covering with a little soil and then grown to 5 to 10 cm of plant length in a greenhouse. Each of water-diluted test chemical solutions was sprayed to foliage part of Amaranthus lividus with a small spray in an amount corresponding to the spray amount of 1000 litter/ha to achieve predetermined amount of agent. Cultivation was carried out in a greenhouse. Then herbicidal effect on Amaranthus lividus was examined two weeks after the treatment according to an examination criterion below.
Values 1, 3, 5, 7, and 9 indicate the intermediate value of […], 4 and 6, 6 and 8, and 8 and 10 respectively.

Arabidopsis wild type = experiment: Acifluorfen resistance test, degree of necrosis on leaves, wild type; type: in vivo; settings: acifluorfen 10 μM, 5 μl dropped onto leaves, 7 days after treatment, by eye on a 0 to 5 scale (5 complete death, 0 no effect)
Experimental: (§3) For transformants in which gene introduction was confirmed, acifluorfen resistance effect was tested. Acifluorfen was prepared as emulsion to contain 4% of effective component by mixing and solubilizing dimethylformamide and polyoxyethylene sorbitan surfactant. This was diluted with water to make the final concentration of acifluorfen 10 μM, 5 μl of which was dropped using a micropippet onto leaves of Arabidopsis wild type and transformed Arabidopsis slr lineage, in which gene introduction was confirmed, both grown to 1 to 2 cm in height in a growth chamber.
(§4) Study was continued until 7 days after the treatment with the chemicals and degree of necrosis was evaluated by eye (on a 0 to 5 scale, 0 means no effect).
(§5) Evaluation was done by eye on a 0 to 5 scale, with 5 meaning complete death and 0 meaning no effect.

[3] = tested on: transformed Arabidopsis slr lineage (slr1790-introduced); experiment: Acifluorfen resistance test, degree of necrosis on leaves, slr1790-introduced transformants; type: in vivo; settings: acifluorfen 10 μM, 5 μl dropped onto leaves, 7 days after treatment, by eye on a 0 to 5 scale (5 complete death, 0 no effect)
Experimental: as §3, §4, §5

| SMILES | IC50 [1] | IC50 [2] | Herbicidal activity (foliage treatment) (herbicide index for Amaranthus lividus, 16 g ai/ha) (Amaranthus lividus) | degree of necrosis, Arabidopsis Wild Type (Arabidopsis wild type) | degree of necrosis, slr 52 ([3]; transformant slr 52) | degree of necrosis, slr 146 ([3]; transformant slr 146) | pI50 Value AT strain ([1]; turbidity 6 days after start, 30° C., 1000 lux, BG11 liquid medium, pI50 = -log(concentration to inhibit 50% activity (M))) | pI50 Value ATΔslr1790 strain [2] |
| --- | --- | --- | --- | --- | --- | --- | --- | --- |
| O=C(O)c1cc(Oc2ccc(C(F)(F)F)cc2Cl)ccc1[N+](=O)[O-] [acifluorfen] | > 100 µM | 3.16e-05 M | 7 | 4 | 1 | 1 | – | – |
| c1cc[n+]2c(c1)-c1cccc[n+]1CC2 [diquat] | 6.31 µM | 1e-05 M | – | – | – | – | – | – |
| C#CCN1C(=O)COc2cc(F)c(N3C(=O)C4=C(CCCC4)C3=O)cc21 [flumioxazine] | – | – | 10 (100%) | – | – | – | 4> | 6.7 |
| CCOC(=O)COc1cc(-c2nn(C)c(OC(F)F)c2Cl)c(F)cc1Cl [pyraflufenethyl, pyraflufen-ethyl] | > 100 µM | 2.51e-07 M | 10 (100%) | – | – | – | – | – |
